Measured values: patent publication US20060084672A1, “Method for modification of y-secretase activity through inhibition of Fkbp13” (The Hospital for Sick Children, priority 2004, published 2006)

How the values were obtained:
PEN-2 = PEN-2 protein levels in transfected Drosophilia S2 cells (Western analysis); type: cell-based; settings: concentration not given
Source text: (§1) In order to determine if Fkbp13 can also affect the stability of other components of the γ-secretase complex, Drosophilia S2 cells were transfected with tagged constructs expressing APH-1, PEN-2 or Nct and then examined for the effects of FK506 on protein levels.
(§2) cDNA's encoding APH-1, PEN-2 and Nct were subcloned into pAc5.1/V5-HisA or pIB/V5-His TOPO and transiently transfected into Drosophilia S2 cells using cellfectin according to the manufacturer's protocol (Invitrogen). Cells were collected between 24-48 hours for Western analysis using the following antibodies: monoclonal anti-V5 1:5000(Invitrogen), monoclonal anti-HA 1:2000(Roche), monoclonal anti-FLAG M2 1:5000(Sigma) and monoclonal anti-β-tubulin 1:1000 (DSHB).
(§3) In contrast, no effect was observed on the levels of either APH-1 or Nct (FIG. 4A). […] Drosophilia S2 cells were transfected with tagged versions of APH-1, PEN-2 or Nct and treated with 50 μM FK506 over a 24 hour period. No effect was observed on the levels of APH-1, Nct or β-tubulin control. Similarly, no effect was observed using either DMSO (control) or the known γ-secretase inhibitor, DAPT.

γ-secretase = molecular target: T1, γ-secretase (Homo sapiens, UniProt P49768); assay: Aβ1-40 sandwich ELISA in Cos-7 cells stably expressing APP C99 and transfected with human PS1; type: cell-based
T1 construct: expressed in transfected cells; host or cells: Cos-7 stably expressing APP C99 (pCEP4-SPA4CT-DA)
Description: To determine the effect of drug treatment on Psn stability, HEK293 cells were transiently co-transfected with psn and Fkbp13 constructs. 24 hours after transfection, 100 mm dishes of transfected HEK293 cells were treated with 5 μM FK506 (CALBIOCHEM), 1 μM Rapamycin (CALBIOCHEM) or DMSO (control), harvested at various time points and analyzed by Western blotting techniques. To measure Aβ40, Cos-7 cells were transfected with pCEP4-SPA4CT-DA (gift from Dr. Gunter Merdes, ZMBH, University of Heidelberg) that contains an APP^C99 cDNA using lipofectin (Gibco) according to the manufacturers protocol. Cells stably expressing APP^C99 were selected using 300 μg/ml hygromycin and maintained in DMEM medium containing 10% FBS, […] penicillin-streptomycin and 100 μg/ml hygromycin. These cells were then transiently transfected with plasmids carrying human PS1. 48 hours after transfection, cells were starved in serum-free DMEM medium for 2 hours, then treated with 1 μm of the γ-secretase inhibitor DAPT or 0.5 μm of the Fkbp13 inhibitor rapamycin or FK506 respectively, in DMEM medium containing 5% FBS o/n. Cells then were harvested and lysed and the conditioned lysates were used to measure Aβ1-40 by sandwich ELISA as described in (Yan et al. Nature 402:533-537 1999)using 6E10 (Senetek) as the capture antibody and the polyclonal Pan-β-Amyloid (Oncogene) for detection of Aβ40. […]

Fkbp13 = Fkbp13 levels in HEK293 cells transfected with Fkbp13 and Psn (Western blot); type: cell-based, Drosophila; settings: treated for 1-24 hours
Description: HEK293 cells were maintained at 37° C. and 5% CO2 in α-minimal essential medium (Hyclone) supplemented with 10% heat-inactivated fetal bovine serum and plated 24 hours before transfection. For each 10 cm tissue culture dish, 12-16 μg cDNA was used. HEK293 cells were transiently transfected with plasmids encoding Drosophila Rya-r44f, Fkbp13, or psn using calcium phosphate precipitation. The cells were harvested 40-42 hours afer transfection.
Protein quantification, SDS-polyacrylamide gel electrophoresis (5-12% or 8-12% gradient gel, or 10% SDS-PAGE) and immunoblot analysis were carried out as described previously (Guo et al. Journal of Cell Science 113:3499-3508 2000) using the monoclonal antibodies, anti-β-actin and anti-FLAG (Sigma), anti-GFP (Santa Cruz Biotechnology), anti-HA (12c-A5, Roche), anti-β-tubulin (Developmental Studies Hybridoma Bank), anti-Xpress and anti-V5 (Invitrogen) and a polyclonal anti-GFP (Santa Cruz Biotechnology). Microsomal fractions were prepared from cells using a detergent-free protocol. […]
(§4) To determine the effect of drug treatment on Psn stability, HEK293 cells were transiently co-transfected with psn and Fkbp13 constructs. 24 hours after transfection, 100 mm dishes of transfected HEK293 cells were treated with 5 μM FK506 (CALBIOCHEM), 1 μM Rapamycin (CALBIOCHEM) or DMSO (control), harvested at various time points and analyzed by Western blotting techniques. […]

Actin = Actin levels in HEK293 cells transfected with Fkbp13 and Psn (Western blot); type: cell-based; settings: treated for 1-24 hours
Description: Protein quantification, SDS-polyacrylamide gel electrophoresis (5-12% or 8-12% gradient gel, or 10% SDS-PAGE) and immunoblot analysis were carried out as described previously (Guo et al. Journal of Cell Science 113:3499-3508 2000) using the monoclonal antibodies, anti-β-actin and anti-FLAG (Sigma), anti-GFP (Santa Cruz Biotechnology), anti-HA (12c-A5, Roche), anti-β-tubulin (Developmental Studies Hybridoma Bank), anti-Xpress and anti-V5 (Invitrogen) and a polyclonal anti-GFP (Santa Cruz Biotechnology). Microsomal fractions were prepared from cells using a detergent-free protocol. All steps were performed at <4° C. Cell pellets were resuspended in 300 μl hypo-osmotic buffer (20 mM Tris/HCl, pH 7.5) supplemented with complete protease inhibitor (Roche), homogenized through a 27G needle and sonicated. Nuclei were removed by centrifugation (1200 g, 25 minutes) and the post-nuclear supernatant (containing membrane and soluble fractions) was denatured for 5 minutes at 100° C. in SDS-PAGE sample buffer. […]
as §4

human PS-1 = assay: 35S-methionine pulse-chase of PS1 stability in Cos-7 cells; type: cell-based; settings: Cos-7 cells transfected with human PS-1, in the presence of FK506; without FK506 3.5±0.2 h
Description: In order to confirm that FK506 was affecting the stability of PS1 a pulse-chase of ^35S-methionine was performed and the amount of PS1 remaining after various chase periods was measured by immunoprecipitation and autoradiography.
Pulse-chase labeling of cells was performed using TRAN ^35S-LABEL™ Metabolic Labeling Reagent (ICN). Cos-7 cells were transiently transfected with human PS-1. After 48 hours, cells were washed with PBS and then starved in the presence of methionine and cysteine free DMEM (Invitrogen) containing 10% dialyzed fetal bovine serum for 1 hour at 37° C. Cells were then incubated with [^35S] methionine (400 μCi/ml) in the presence or absence of FK506 for an additional 2 hours. The cells were then washed with 10 ml of PBS twice and chased with DMEM containing the indicated reagents for various times. Cells were then harvested and lysed in IP buffer and TCA precipitated to quantify the incorporation of ^35S-methionine. Equal amounts of microsomal fractions from radioactive cells were then incubated with 2 μg of anti-human PS1. Subsequently, […] of protein A agarose beads (Invitrogen) were added to the IP reactions and rotated for 2 hours at 4° C. The beads were then washed 4 times with IP washing buffer, denatured in 2× SDS-PAGE sample buffer and run on 12% SDS-PAGE.

APH-1 = APH-1 protein levels in transfected Drosophilia S2 cells (Western analysis); type: cell-based; settings: 50 μM FK506 over a 24 hour period
Source text: as §1, §2, §3

Nct = Nct protein levels in transfected Drosophilia S2 cells (Western analysis); type: cell-based; settings: 50 μM FK506 over a 24 hour period
Source text: as §1, §2, §3

β-amyloid peptide production (in words) (γ-secretase; APP C99 + human PS1, 1 μm DAPT or 0.5 μm rapamycin o/n)	decrease in the levels of β-amyloid peptide (γ-secretase; APP C99 + human PS1, 0.5 μm FK506 o/n, vs untreated or DMSO treated controls) [%]	SMILES	effect of DAPT on protein levels (PEN-2) in S2 cells (PEN-2)	levels of Fkbp13 (Fkbp13)	levels of Actin (Actin)	PS1 half-life (human PS-1) [h]	levels of APH-1 (APH-1)	levels of Nct (Nct)
comparable	–	C[C@H](NC(=O)Cc1cc(F)cc(F)c1)C(=O)N[C@H](C(=O)OC(C)(C)C)c1ccccc1 [DAPT]	no effect	–	–	–	–	–
–	80	C=CC[C@@H]1/C=C(\C)C[C@H](C)C[C@H](OC)[C@H]2O[C@@](O)(C(=O)C(=O)N3CCCC[C@H]3C(=O)O[C@H](/C(C)=C/[C@@H]3CC[C@@H](O)[C@H](OC)C3)[C@H](C)[C@@H](O)CC1=O)[C@H](C)C[C@@H]2OC [FK506]	–	no effect	no effect	1.25 ± 0.3	no effect	no effect
